# Results reported in publication PMC3392265 (PLoS ONE, 2012).
# Target: T1, GenK (Corynebacterium glutamicum, UniProt Q8NLB7)
# T1 construct: full-length, native gene in intact C. glutamicum RES167 cells; mutants expressed from pXMJ19 in RES167 delta-genK; untagged as far as told; 12 predicted transmembrane helices
# Assay: inhibition of […]-gentisate uptake in RES167 cells
# Format: cell-based
# T1 sequence (Q8NLB7 whole entry): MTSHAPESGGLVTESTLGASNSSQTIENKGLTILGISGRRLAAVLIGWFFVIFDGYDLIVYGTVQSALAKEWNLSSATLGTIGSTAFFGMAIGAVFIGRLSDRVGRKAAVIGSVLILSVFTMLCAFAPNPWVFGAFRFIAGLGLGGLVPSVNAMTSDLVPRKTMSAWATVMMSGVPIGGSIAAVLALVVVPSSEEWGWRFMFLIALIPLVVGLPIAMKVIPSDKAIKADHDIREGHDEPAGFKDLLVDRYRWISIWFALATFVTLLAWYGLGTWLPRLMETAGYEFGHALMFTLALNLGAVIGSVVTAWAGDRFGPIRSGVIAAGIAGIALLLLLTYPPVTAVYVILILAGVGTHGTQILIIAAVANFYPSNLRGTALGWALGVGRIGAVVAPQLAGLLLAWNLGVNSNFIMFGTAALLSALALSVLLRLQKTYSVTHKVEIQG
row,SMILES,inhibition at 800 µM [%]
1,O=C(O)c1ccccc1 [benzoate],40 to 60
2,Oc1ccccc1O [catechol],40 to 60
3,O=C(O)c1cccc(O)c1 [3-hydroxybenzoate],94
4,O=C(O)c1ccc(O)c(O)c1 [protocatechuate],40 to 60
